Source: patent publication US20110301078A1, “PREVENTION OF BACTERIAL GROWTH AND BIOFILM FORMATION BY LIGANDS THAT ACT ON CANNABINOIDERGIC SYSTEMS” (priority 2008, published 2011)

How the values were obtained:
MRSA bacteria = assay: MRSA bacterial growth and biofilm formation in broth tubes, crystal violet stain (Example 1, FIG. 2); assay type: cell-based, Methicillin-resistant Staphylococcus aureus; conditions: about 5000 CFU/mL, 16-20 hours, 2 mL broth, 35±2° C., CP55,940 and LEA at 30 μm; for MRSA biofilm formation: crystal violet, qualitative
Procedure: (§1) The broth inoculum was prepared from 18-24 hours old colonies grown on standard agar plates. Approximately four of the fresh colonies were swiped with a sterile cotton Q-tip and then suspended in saline by immersion and light swirling. The turbidity was adjusted to equal that of a 0.5 McFarland turbidity standard using a spectrophotometer (600 nm). The amount corresponded to about 1.5×10^8 CFU/mL, where CFU stands for colony-forming units, and is equivalent to an absorbance at 600 nm equal to 0.132 or a percentage transmission equal to 74.3. […] Sterile 4 mL polystyrene tubes (12×75 mm) with caps were used for this purpose.
MRSA bacteria (about 5000 CFU/mL) were allowed to grow for 16-20 hours in 2 mL broth at 35±2° C. in the presence or absence of various experimental compounds or antibiotics. The amount of biofilm was visualized qualitatively after being stained with crystal violet. Biofilm attached to the side of the tube was stained purple. The compounds CP55,940, LEA, and capsaicin were all tested at 30 μm. In the negative control, no compounds were added. The vehicle controls were made up of the appropriate dilution of the different solvent used to dissolve the experimental compounds, including methanol (MeOH), ethanol (EtOH) or dimethylsulfoxide (DMSO). The experimental compounds tested included CP55,940, noladin ether, O-2050, and linoleyl ethanolamide. High concentrations of the antibiotics zeocin and ampicillin served as positive antimicrobial controls. […] The no bacteria group contained only media and no bacteria, and served as another control.

[1] = test system: gram-positive bacteria, including Streptococcus agalactiae, Enterococcus faecalis, Staphylococcus epidermidis, and prominent MRSA strains; assay: Growth and biofilm formation of gram-positive strains, crystal violet stain quantified at 600 nm (Example 2, FIG. 3); assay type: cell-based; conditions: 30 μM, overnight, 35±2° C.; for growth of gram-positive bacteria, including MRSA: 2 mL broth; for biofilm formation of gram-positive bacteria, including MRSA: crystal violet stain solubilized, 600 nm
Procedure: as §1, with “efficacy of the compounds were again tested against different strains of gram-positive bacteria, including Streptococcus agalactiae, Enterococcus faecalis, Staphylococcus epidermidis, and prominent MRSA (hospital-acquired and community-acquired) strains. Broth” for “broth”
The bacteria were allowed to incubate overnight in 2 mL broth at 35±2° C. in the presence or absence of various experimental compounds or antibiotics. The amount of biofilm was visualized qualitatively, then stained with crystal violet. Biofilm attached to the side of the tube was stained purple. After staining, the tubes were decanted and rinsed, leaving stained biofilm adhering to the tubes. Next, the stain was solubilized and mixed with ethanol (EtOH) or dimethylsulfoxide (DMSO). The turbidity of the so lubilized stain, or lack thereof, was then quantified in a spectrophotometer (600 nm). In the broth only sample, no bacteria were added. In the negative controls, no compounds were added. The vehicle controls were made up of the appropriate dilution of the different solvent used to dissolve the experimental compounds, including ethanol (EtOH) or dimethylsulfoxide (DMSO). The experimental compounds tested included 30 μM of CP55,940, 30 μM of O-2050, 30 μM of linoleyl ethanolamide, 30 μM of no ladin ether, and 30 μM of anandamide (natural product 2). High concentrations of silver nitrate (1000 μM) and vancomycin (50 μg/mL) served as positive antimicrobial controls.

mammalian CB1 receptors = mammalian CB1 receptors (Homo sapiens, UniProt P21554); conditions: cited from earlier work
Sequence of mammalian CB1 receptors (P21554 whole entry): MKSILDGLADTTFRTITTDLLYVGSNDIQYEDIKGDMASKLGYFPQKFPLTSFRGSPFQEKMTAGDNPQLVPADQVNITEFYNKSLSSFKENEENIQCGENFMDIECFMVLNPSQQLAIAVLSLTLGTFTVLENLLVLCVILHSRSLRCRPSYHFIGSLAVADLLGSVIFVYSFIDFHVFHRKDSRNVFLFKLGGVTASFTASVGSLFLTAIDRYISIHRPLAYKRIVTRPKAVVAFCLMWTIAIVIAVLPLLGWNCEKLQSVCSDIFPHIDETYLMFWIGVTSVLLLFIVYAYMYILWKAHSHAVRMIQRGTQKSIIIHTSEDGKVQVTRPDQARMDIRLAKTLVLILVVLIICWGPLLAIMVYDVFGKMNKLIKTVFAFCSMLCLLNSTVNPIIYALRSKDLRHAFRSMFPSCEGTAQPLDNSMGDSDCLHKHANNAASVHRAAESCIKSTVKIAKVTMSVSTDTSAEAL

mammalian CB2 receptors = mammalian CB2 receptors (Homo sapiens, UniProt P34972); conditions: cited from earlier work
Sequence of mammalian CB2 receptors (P34972 whole entry): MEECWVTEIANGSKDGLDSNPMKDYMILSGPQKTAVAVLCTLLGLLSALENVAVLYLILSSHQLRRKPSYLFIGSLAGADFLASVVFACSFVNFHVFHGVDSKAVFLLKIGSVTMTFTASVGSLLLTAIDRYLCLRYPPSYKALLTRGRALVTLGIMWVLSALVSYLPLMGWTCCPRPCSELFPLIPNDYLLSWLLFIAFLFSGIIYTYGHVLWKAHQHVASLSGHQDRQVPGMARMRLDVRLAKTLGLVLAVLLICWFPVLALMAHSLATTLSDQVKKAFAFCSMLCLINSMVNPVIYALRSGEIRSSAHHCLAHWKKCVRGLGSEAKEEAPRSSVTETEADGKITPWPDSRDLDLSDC

CN[C@H]1C[C@@H](N)[C@H](O)[C@@H](O[C@@H]2O[C@H](CO)[C@H](O)[C@@H]3OC4(O[C@H]23)O[C@H]([C@@H](N)CO)[C@H](O)[C@H](O)[C@H]4O)[C@@H]1O (stereo partly shown) [Hydromycin B, reference compound]
MRSA growth (MRSA bacteria): Relatively ineffective

CCCCC/C=C\C/C=C\C/C=C\C/C=C\CCCCOC(CO)CO [noladin ether, 2-[(5Z,8Z,11Z,14Z)-eicosatetraenyloxy]-1,3-propanediol]
MRSA growth (MRSA bacteria): prevent | MRSA biofilm formation (MRSA bacteria): prevent

CC1=CC[C@@H]2[C@@H](C1)c1c(O)cc(CC#CCCCNS(C)(=O)=O)cc1OC2(C)C [Compound O-2050]
MRSA growth (MRSA bacteria): prevent | MRSA biofilm formation (MRSA bacteria): prevent | growth of gram-positive bacteria, including MRSA [1]: prevent | biofilm formation of gram-positive bacteria, including MRSA [1]: prevent

CCCCCCC(C)(C)c1ccc([C@@H]2C[C@H](O)CC[C@H]2CCCO)c(O)c1 [CP55,940, (−)-cis-3-[2-Hydroxy-4-(1,1-dimethylheptyl)phenyl]-tran s-4-(3-hydroxypropyl)cyclohexanol]
affinity for CB1 receptor (mammalian CB1 receptors): high affinity | affinity for CB2 receptor (mammalian CB2 receptors): high affinity | MRSA growth (MRSA bacteria): prevent | MRSA biofilm formation (MRSA bacteria): prevent | growth of gram-positive bacteria, including MRSA [1]: prevent | biofilm formation of gram-positive bacteria, including MRSA [1]: prevent

CCCCC/C=C\C/C=C\CCCCCCCC(=O)NCCO [LEA, N-(2-hydroxyethyl)-9Z,12Z-octadecadienamide]
affinity for CB1 receptor (mammalian CB1 receptors): poor affinity | affinity for CB2 receptor (mammalian CB2 receptors): poor affinity | MRSA growth (MRSA bacteria): prevent | MRSA biofilm formation (MRSA bacteria): prevent | growth of gram-positive bacteria, including MRSA [1]: prevent | biofilm formation of gram-positive bacteria, including MRSA [1]: prevent
